From ChEMBL document CHEMBL3046521, “Synthesis and antitumor activity of (4-hydroxyphenyl)[5-substituted alkyl/aryl)-2-thioxo-1,3,4-thiadiazol-3-yl]methanone and [(3,4-disubstituted)-1,3-thiazol-2ylidene]-4-hydroxybenzohydrazide” (2011)

Assays:
Assay type in all cases: functional
LOX IMVI = assay: Anticancer activity in Homo sapiens (human) LOXIMVI cells assessed as cell growth at 10^-5 M after 48 hr by SRB assay; conditions: read-out: Activity
KM12 = assay: Cytotoxicity against Homo sapiens (human) KM12 cells after 48 hr by sulforhodamine B assay; conditions: KM12, 48 h
HCC 2998 [1] = assay: Cytotoxicity against Homo sapiens (human) HCC2998 cells after 48 hr by sulforhodamine B assay; conditions: HCC 2998, 48 h
NCI-H522 = assay: Cytotoxicity against Homo sapiens (human) NCI-H522 cells after 48 hr by sulforhodamine B assay; conditions: NCI-H522, 48 h
HOP-92 = assay: Cytotoxicity against Homo sapiens (human) HOP92 cells after 48 hr by sulforhodamine B assay; conditions: HOP-92, 48 h; for TGI: read-out: pTGI (converted)
HL-60(TB) = assay: Cytotoxicity against Homo sapiens (human) HL-60(TB) cells after 48 hr by sulforhodamine B assay; conditions: HL-60, 48 h; for CC50: read-out: pLC50 (the source's name) (converted); for TGI: read-out: pTGI (converted)
CCRF-CEM = assay: Cytotoxicity against Homo sapiens (human) CCRF-CEM cells after 48 hr by sulforhodamine B assay
MDA-MB-468 = assay: Cytotoxicity against Homo sapiens (human) MDA-MB-468 cells after 48 hr by sulforhodamine B assay; conditions: MDA-MB-468, 48 h
PC-3 = assay: Cytotoxicity against Homo sapiens (human) PC3 cells after 48 hr by sulforhodamine B assay; conditions: PC-3, 48 h; for TGI: read-out: pTGI (converted)
CAKI-1 [2] = assay: Cytotoxicity against Homo sapiens (human) Caki1 cells after 48 hr by sulforhodamine B assay; conditions: CAKI-1, 48 h; for TGI: read-out: pTGI (converted)
[3] = Cytotoxicity against Homo sapiens (human) NCI-ADR-RES cells after 48 hr by sulforhodamine B assay
MDA-MB-435 = assay: Cytotoxicity against Homo sapiens (human) MDA-MB-435 cells after 48 hr by sulforhodamine B assay; conditions: MDA-MB-435, 48 h
SF-295 = assay: Cytotoxicity against Homo sapiens (human) SF295 cells after 48 hr by sulforhodamine B assay; conditions: SF-295, 48 h; for TGI: read-out: pTGI (converted)
HCC 2998 [4] = assay: Anticancer activity in Homo sapiens (human) HCC2998 cells assessed as cell growth at 10^-5 M after 48 hr by SRB assay; conditions: HCC 2998, 48 h, read-out: Activity
HCT-116 = assay: Cytotoxicity against Homo sapiens (human) HCT116 cells after 48 hr by sulforhodamine B assay; conditions: HCT-116, 48 h
[5] = Anticancer activity in Homo sapiens (human) NCI-ADR-RES cells assessed as cell growth at 10^-5 M after 48 hr by SRB assay; conditions: read-out: Activity
MCF7 = assay: Cytotoxicity against Homo sapiens (human) MCF7 cells after 48 hr by sulforhodamine B assay; conditions: MCF7, 48 h
OVCAR-3 = assay: Cytotoxicity against Homo sapiens (human) OVCAR3 cells after 48 hr by sulforhodamine B assay; conditions: OVCAR-3, 48 h
Malme-3M = assay: Cytotoxicity against Homo sapiens (human) MALME-3M cells after 48 hr by sulforhodamine B assay
CAKI-1 [6] = assay: Anticancer activity in Homo sapiens (human) Caki1 cells assessed as cell growth at 10^-5 M after 48 hr by SRB assay; conditions: CAKI-1, 48 h, read-out: Activity

O=C(c1ccc(O)cc1)n1nc(-c2ccc(O)cc2)sc1=S
growth at 10 µM (LOX IMVI): -0.61%

O=C(N/N=c1\scc(-c2ccc(Cl)cc2)n1-c1ccc(Cl)cc1Cl)c1ccc(O)cc1
GI50 (KM12): 2.63 µM | LC50 (KM12): 87.1 µM | TGI (KM12; read-out: pTGI (converted)): 8.51 µM | GI50 (HCC 2998 [1]): 1.95 µM | LC50 (HCC 2998 [1]): 53.7 µM | TGI (HCC 2998 [1]; read-out: pTGI (converted)): 5.25 µM | GI50 (NCI-H522): 2.57 µM | LC50 (NCI-H522): > 100 µM | TGI (NCI-H522; read-out: pTGI (converted)): 20 µM | GI50 (HOP-92): 2.95 µM | LC50 (HOP-92): 49 µM | TGI (HOP-92): 7.59 µM | GI50 (HL-60(TB)): 0.302 µM | CC50 (HL-60(TB)): > 100 µM | TGI (HL-60(TB)): 38 µM | GI50 (CCRF-CEM): 0.977 µM | LC50 (CCRF-CEM): > 100 µM | TGI (CCRF-CEM; read-out: pTGI): > 100 µM | GI50 (MDA-MB-468): 3.89 µM | LC50 (MDA-MB-468): > 100 µM | TGI (MDA-MB-468; read-out: pTGI (converted)): > 100 µM | GI50 (PC-3): 3.39 µM | LC50 (PC-3): > 100 µM | TGI (PC-3): > 100 µM | GI50 (CAKI-1 [2]): 3.31 µM | LC50 (CAKI-1 [2]): > 100 µM | TGI (CAKI-1 [2]): 52.5 µM | GI50 [3]: 2.95 µM | LC50 [3]: > 100 µM | TGI ([3]; read-out: pTGI (converted)): 8.32 µM | GI50 (MDA-MB-435): 2.88 µM | LC50 (MDA-MB-435): > 100 µM | TGI (MDA-MB-435; read-out: pTGI (converted)): 22.9 µM | GI50 (SF-295): 2.82 µM | LC50 (SF-295): > 100 µM | TGI (SF-295): 9.77 µM | growth at 10 µM (HCC 2998 [4]): -1.56%

COc1ccc(-n2c(-c3ccc(Cl)cc3)cs/c2=N\NC(=O)c2ccc(O)cc2)c(OC)c1
GI50 (HCT-116): 27.5 µM | LC50 (HCT-116): > 100 µM | TGI (HCT-116; read-out: pTGI (converted)): > 100 µM | GI50 (HOP-92): 14.5 µM | LC50 (HOP-92): > 100 µM | TGI (HOP-92): 64.6 µM | GI50 (HL-60(TB)): 17.8 µM | CC50 (HL-60(TB)): > 100 µM | TGI (HL-60(TB)): 81.3 µM | growth at 10 µM [5]: -1.18% | GI50 (MCF7): 25.1 µM | LC50 (MCF7): > 100 µM | TGI (MCF7; read-out: pTGI (converted)): > 100 µM | GI50 (PC-3): 18.2 µM | LC50 (PC-3): > 100 µM | TGI (PC-3): > 100 µM | GI50 (CAKI-1 [2]): 22.9 µM | LC50 (CAKI-1 [2]): > 100 µM | TGI (CAKI-1 [2]): > 100 µM | GI50 (OVCAR-3): 26.9 µM | LC50 (OVCAR-3): > 100 µM | TGI (OVCAR-3; read-out: pTGI (converted)): 83.2 µM | GI50 (Malme-3M): 25.1 µM | LC50 (Malme-3M): > 100 µM | TGI (Malme-3M; read-out: pTGI (converted)): 91.2 µM | GI50 (SF-295): 27.5 µM | LC50 (SF-295): > 100 µM | TGI (SF-295): > 100 µM

COc1ccc(-c2nn(C(=O)c3ccc(O)cc3)c(=S)s2)cc1
growth at 10 µM (CAKI-1 [6]): 68%
